The record followed here is US11896603B2, “Oligosaccharide as therapeutic agent for alcohol associated liver disease” (The Regents of the University of California, priority 2020, dated 2024).

Series [1] concerns cytolysin positive strain of E. faecalis. Kind of series: Enterococcus faecalis cultures, growth by optical density at 600 nm. It is filed as cell-based. Conditions: BHI media with 0, 0.25, 0.5, 1, 2 or 20 mg/mL of 2′-FL, 6 h, sampling every 30 min (FIG. 5G). As to the method:
Enterococcus faecalis cultures. A cytolysin positive strain of E. faecalis, which was isolated from feces of an ethanol-fed Atp4a^s1/s1 mouse, was cultured in BHI media with 0, 0.25, 0.5, 1, 2 or 20 mg/mL of 2′-FL in triplicate for each concentration. Sampling was taken at 30 min intervals during the course of 6 h. Cell growth was determined by measuring the optical density at 600 nm for each time-point.

Series [2] concerns E. faecalis. Kind of series: Fecal E. faecalis and cytolysin by qPCR in chronic-binge ethanol diet-fed mice. It is filed as in vivo, mouse. Conditions: Fut2^−/− mice. As to the method:
In the 2′-fucosyllactose (2′-FL; a gift from Jennewein Biotechnologie GmbH, Germany) supplementation experiments we used a chronic-binge ethanol diet (NIAAA model). Fut2^−/− mice (10-11 weeks, male and female) were fed with Lieber-DeCarli diet with caloric intake from ethanol 0% on days 1-5 and 36% of total calories from day 6 to day 16. At day 16 in the early morning, mice were gavaged with a single dose of ethanol (5 g/kg body weight) and harvested 9 hours later. In the 2′-FL treated groups 2′-FL was added in the ethanol diet at a final concentration of 2 mg/mL and given continuously during the study period.
Reverse transcription and real-time quantitative PCR. For reverse transcription qPCR, RNA was extracted from mouse liver, and cDNAs were generated as described. DNA from mouse feces was extracted using QIAamp Fast DNA Stool kit (Qiagen, 51604). Quantitative PCR was performed with iTaq universal SYBR Green Supermix (Bio-Rad, 1725124) using a StepOnePlus thermocycler real-time PCR system. Primer sequences for mouse genes were obtained from the NIH qPrimerDepot. The values of mouse genes were normalized to 18S, while bacterial genes were normalized to 16S.
Background: Quantitative PCR measures a nucleic acid by following its amplification.

Series [3] relates to Fut2^−/− mice. Kind of series: 2′-FL supplementation in chronic-binge ethanol diet (NIAAA model), ethanol-induced liver disease. It is filed as in vivo, mouse. As to the method:
In the 2′-fucosyllactose (2′-FL; a gift from Jennewein Biotechnologie GmbH, Germany) supplementation experiments we used a chronic-binge ethanol diet (NIAAA model). Fut2^−/− mice (10-11 weeks, male and female) were fed with Lieber-DeCarli diet with caloric intake from ethanol 0% on days 1-5 and 36% of total calories from day 6 to day 16. At day 16 in the early morning, mice were gavaged with a single dose of ethanol (5 g/kg body weight) and harvested 9 hours later. In the 2′-FL treated groups 2′-FL was added in the ethanol diet at a final concentration of 2 mg/mL and given continuously during the study period. Formalin-fixed and paraffin-embedded mouse livers were stained with hematoxylin-eosin (Leica Biosystems Inc.) using standard staining protocols. Frozen liver sections were stained with Oil Red O (Sigma-Aldrich, 00625). Biochemical assays. Levels of plasma alanine aminotransferase (ALT) were measured using infinity ALT kit (Thermo Scientific, TR71121). Triglyceride levels were measured using the Triglyceride Liquid Reagents Kit (Pointe Scientific, 51604). Reverse transcription and real-time quantitative PCR. For reverse transcription qPCR, RNA was extracted from mouse liver, and cDNAs were generated as described. DNA from mouse feces was extracted using QIAamp Fast DNA Stool kit (Qiagen, 51604). Quantitative PCR was performed with iTaq universal SYBR Green Supermix (Bio-Rad, 1725124) using a StepOnePlus thermocycler real-time PCR system. Primer sequences for mouse genes were obtained from the NIH qPrimerDepot. The values of mouse genes were normalized to 18S, while bacterial genes were normalized to 16S.

Regarding `CC1O[C@@H](OC2[C@H](O[C@@H]3C(CO)OC(O)C(O)[C@H]3O)OC(CO)[C@H](O)[C@@H]2O)[C@@H](O)C(O)[C@@H]1O` (stereo partly shown) [2′-FL, 2′-fucosyllactose], the “E. faecalis growth (OD600)” value in series [1] is recorded as “not affected”. Further, the “Intestinal amount of E. faecalis (fecal E. faecalis, qPCR)” value in series [2] (chronic-binge ethanol diet with or without 2′-FL for 2 weeks (FIG. 5E)) was “decreased”. Also, in series [2] (chronic-binge ethanol diet with or without 2′-FL for 2 weeks (FIG. 5F)), the “Fecal cytolysin (qPCR)” value is reported as “decreased”. In addition, in series [3] (2′-FL 2 mg/mL in diet for 2 weeks (FIG. 4G-4I)), the “Metabolism of ethanol (plasma ethanol, hepatic Adh1 mRNA, hepatic Cyp2e1 mRNA)” value was “without affecting”. In series [3] (2′-FL 2 mg/mL in diet for 2 weeks, compared with ethanol diet alone (FIG. 4A)), the “Plasma alanine aminotransferase (ALT)” value is listed as “lower”. The Hepatic triglyceride entry in series [3] (2′-FL 2 mg/mL in diet for 2 weeks, compared with ethanol diet alone (FIG. 4B)) is recorded as “lower”. Besides, the “Liver histopathology (H&E-stained liver tissue)” value in series [3] (2′-FL 2 mg/mL in diet for 2 weeks, compared with ethanol diet alone (FIG. 4C)) was “improvement”. For the same compound, the “Hepatic Cxcl1 mRNA level” value in series [3] (2′-FL 2 mg/mL in diet for 2 weeks, compared with ethanol diet alone (FIG. 4D)) is “decreased”. Further, in series [3] (2′-FL 2 mg/mL in diet for 2 weeks, compared with ethanol diet alone (FIG. 4E)), the “Hepatic Cxcl2 mRNA level” value was “decreased”. The “Oil Red O staining of liver tissue” value in series [3] (2′-FL 2 mg/mL in diet for 2 weeks, compared with ethanol diet alone (FIG. 4F)) is given as “improvement”.
